From patent US20250277012A1 (Protagonist Therapeutics, Inc., priority 2021, published 2025) come the findings set out here.

SMILES strings stand for the structures. Starred links: 1 amine or outer side, 2 acyl side, 3 side chain; linkers in the order of their positions; H or OH if unused. Positions of bridges follow the written chain, without caps; N, C: chain ends. Non-standard residues stand in square brackets, D forms with d. Residues, ends and D or L forms follow the SMILES beside them. Groups on a side chain read outwards from the residue. *: point of attachment. X1 = C[N+](C)(CCNC(=O)CCCCCCCCCCCCCCCCC(=O)O)CC(=O)*; C18 diacid = O=C(O)CCCCCCCCCCCCCCCCC(=O)*; Lys(Me3) = C[N+](C)(C)CCCC[C@H](N)C(=O)O; Dip = N[C@H](C(=O)O)C(c1ccccc1)c1ccccc1; γGlu = O=C(O)[C@H](CCC(=O)[*:2])N[*:1]; Palmitoyl = CCCCCCCCCCCCCCCC(=O)*; NMeF = CN[C@@H](Cc1ccccc1)C(=O)O; NMeT = CN[C@H](C(=O)O)[C@@H](C)O; β3hF = N[C@H](CC(=O)O)Cc1ccccc1; NMeK = CN[C@@H](CCCCN)C(=O)O; Pen = CC(C)(S)[C@H](N)C(=O)O; Isovaleryl = CC(C)CC(=O)*; NMeC = CN[C@@H](CS)C(=O)O; hCys = N[C@@H](CCS)C(=O)O; Dap = NC[C@H](N)C(=O)O; AEEA = NCCOCCOCC(=O)O; Ahx = NCCCCCC(=O)O

For one assay, the target named is T1, ferroportin (Homo sapiens, UniProt Q9NP59).
T1 sequence (Q9NP59 1-571): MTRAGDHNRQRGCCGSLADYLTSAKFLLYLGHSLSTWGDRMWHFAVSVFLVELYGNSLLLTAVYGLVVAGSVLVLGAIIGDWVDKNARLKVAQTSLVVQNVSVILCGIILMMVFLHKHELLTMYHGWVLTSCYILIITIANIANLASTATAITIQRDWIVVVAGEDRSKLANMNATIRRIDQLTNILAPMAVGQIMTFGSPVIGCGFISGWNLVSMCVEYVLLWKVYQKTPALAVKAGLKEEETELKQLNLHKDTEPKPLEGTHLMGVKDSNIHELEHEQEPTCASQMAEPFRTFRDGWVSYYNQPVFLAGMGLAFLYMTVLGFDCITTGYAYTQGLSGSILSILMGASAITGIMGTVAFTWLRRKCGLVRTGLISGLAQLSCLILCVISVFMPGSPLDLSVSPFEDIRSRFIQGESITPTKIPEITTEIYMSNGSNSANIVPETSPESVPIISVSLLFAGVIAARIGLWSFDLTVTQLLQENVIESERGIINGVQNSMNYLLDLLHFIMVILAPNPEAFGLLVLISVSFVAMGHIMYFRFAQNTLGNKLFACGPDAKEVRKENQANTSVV
As to the kind of experiment: FPN activity assay: ferroportin-GFP internalization/degradation in HEK293 cells. The class given is cell-based. Set-up: expressed in transfected cells. To be noted: Table 6E; ferroportin-GFP internalization/degradation, at least 18 hours incubation; read-out: FPN IC50. As to the method: Following internalization, the ferroporin protein is degraded.
A retro inverse peptide is a peptide with a reversed sequence in all D amino acids. An example is that Hy-Glu-Thr-His-NH2 becomes Hy-DHis-DThr-DGlu-NH2. The EC50 of these reference compounds for ferroportin internalization/degradation was determined according to the FPN activity assay described above. These peptides served as control standards.
Take `CC(C)CC(=O)N[C@@H](CCC(=O)O)C(=O)N[C@H](C(=O)N[C@@H](Cc1c[nH]cn1)C(=O)N[C@H](C(=O)N1CCC[C@H]1C(=O)N[C@H]1CSSC[C@@H](C(=O)N[C@@H](CCCC[N+](C)(C)C)C(=O)N[C@H](C(N)=O)C(c2ccccc2)c2ccccc2)NC1=O)C(c1ccccc1)c1ccccc1)[C@@H](C)O` [compound 141] (Isovaleryl-ETH[Dip]PCC[Lys(Me3)][Dip]-NH2; disulfide 6-7): the DC50 lay within 0.01 to 0.1 µM.
On the same count and under the same terms, the result for `COC(=O)CC[C@H](NC(=O)CC(C)C)C(=O)N(C)[C@H](C(=O)N[C@@H](Cc1c[nH]cn1)C(=O)N[C@H](C(=O)N1CCC[C@H]1C(=O)N[C@H]1CSSC[C@@H](C(=O)N(C)[C@@H](CCCCNC(=O)C[N+](C)(C)CCNC(=O)CCCCCCCCCCCCCCCCC(=O)O)C(=O)N(C)[C@@H](Cc2ccccc2)C(N)=O)NC1=O)C(c1ccccc1)c1ccccc1)[C@@H](C)O` [compound 185] (Isovaleryl-E(OMe)[NMeT]H[Dip]PCC[NMeK](X1)[NMeF]-NH2; disulfide 6-7) reads more than 0.5 µM.

The same assay, now with this note: ferroportin-GFP HEK293 cells, at least 18 hours; read-out: FPN IC50.
Regarding `CCCCCCCCCCCCCCCC(=O)N[C@@H](CCC(=O)NCCCC[C@H](NC(=O)[C@@H](NC(=O)[C@@H]1CSSC[C@H](NC(=O)[C@@H]2CCCN2C(=O)[C@H](Cc2ccccc2)NC(=O)[C@H](Cc2c[nH]cn2)NC(=O)[C@@H](NC(=O)[C@H](CC(=O)O)NC(=O)CC(C)C)[C@@H](C)O)C(=O)N1)[C@@H](C)CC)C(=O)N[C@@H](Cc1ccccc1)C(=O)N[C@@H](CCC(=O)O)C(=O)N1CCC[C@H]1C(=O)N[C@@H](CCCNC(=N)N)C(=O)O)C(=O)O` [Compd 101] (Isovaleryl-DTHFPCCIK([γGlu-Palmitoyl])FEPR-OH; disulfide 6-7), the DC50 lay within 0.01 to 0.1 µM.
Still for that read-out and setting: the result for `CCCCCCCCCCCCCCCC(=O)NCCCCCC(=O)NCCCC[C@H](NC(=O)C[C@H](Cc1ccccc1)NC(=O)[C@@H]1CCSSCC[C@H](NC(=O)CC(C)C)C(=O)N[C@@H]([C@@H](C)O)C(=O)N[C@@H](Cc2cnc[nH]2)C(=O)N[C@@H](C(c2ccccc2)c2ccccc2)C(=O)N2CCC[C@H]2C(=O)N[C@@H](C)C(=O)N[C@@H]([C@@H](C)CC)C(=O)N1)C(=O)N[C@H](CCCCN)C(N)=O` [compound 111] (Isovaleryl-[hCys]TH[Dip]PAI[hCys][β3hF]K([Ahx-Palmitoyl])[dK]-NH2; disulfide 1-8) reads 0.01 to 0.1 µM.
As for `CCCCCCCCCCCCCCCC(=O)NCCCCCC(=O)NCCCC[C@H](NC(=O)C[C@H](Cc1ccccc1)NC(=O)[C@@H](CCCCN)NC(=O)[C@@H](NC(=O)[C@@H]1CSSC[C@H](NC(=O)[C@@H](NC(=O)[C@H](Cc2c[nH]cn2)NC(=O)[C@@H](NC(=O)[C@H](CCC(=O)O)NC(=O)CC(C)C)[C@@H](C)O)C(c2ccccc2)c2ccccc2)C(=O)N1)[C@@H](C)CC)C(=O)N[C@H](CCCCN)C(N)=O` [Compd 4] (Isovaleryl-ETH[Dip]CCI[dK][β3hF]K([Ahx-Palmitoyl])[dK]-NH2; disulfide 5-6), the DC50 fell in the range of 0.01 to 0.1 µM.
On the same count and under the same terms, the result for `CCCCCCCCCCCCCCCC(=O)NCCCCCC(=O)NCCCC[C@H](NC(=O)C[C@H](Cc1ccccc1)NC(=O)[C@H]1NC(=O)[C@H]([C@@H](C)CC)NC(=O)[C@H](C)NC(=O)[C@@H]2CCCN2C(=O)[C@H](C(c2ccccc2)c2ccccc2)NC(=O)[C@H](Cc2c[nH]cn2)NC(=O)[C@H]([C@@H](C)O)NC(=O)[C@@H](NC(=O)CC(C)C)CCSSC1(C)C)C(=O)N[C@H](CCCCN)C(N)=O` [compound 109] (Isovaleryl-[hCys]TH[Dip]PAI[Pen][β3hF]K([Ahx-Palmitoyl])[dK]-NH2; disulfide 1-8) reads 0.01 to 0.1 µM; that for `CCCCCCCCCCCCCCCC(=O)NCCCCCC(=O)NCCCC[C@H](NC(=O)C[C@H](Cc1ccccc1)NC(=O)[C@H]1CSSC[C@H](NC(=O)CC(C)C)C(=O)N[C@@H]([C@@H](C)O)C(=O)N[C@@H](Cc2c[nH]cn2)C(=O)N[C@@H](C(c2ccccc2)c2ccccc2)C(=O)N2CCC[C@H]2C(=O)N[C@@H](C)C(=O)N[C@@H]([C@@H](C)CC)C(=O)N1)C(=O)N[C@H](CCCCN)C(N)=O` [compound 106] (Isovaleryl-CTH[Dip]PAI[dC][β3hF]K([Ahx-Palmitoyl])[dK]-NH2; disulfide 1-8), 0.1 to 0.5 µM; that for `CCCCCCCCCCCCCCCC(=O)NCCCCCC(=O)NCCCC[C@H](NC(=O)[C@@H](NC(=O)[C@@H]1CCSSC[C@H](N)C(=O)N[C@@H](C(C)C)C(=O)N[C@@H](CCC(=O)O)C(=O)N[C@@H]([C@@H](C)O)C(=O)N[C@@H](Cc2c[nH]cn2)C(=O)N[C@@H](C(c2ccccc2)c2ccccc2)C(=O)N2CCC[C@H]2C(=O)N1)[C@@H](C)CC)C(=O)N[C@H](CC(N)=O)Cc1ccccc1` [Compd 17] (H-CVETH[Dip]P[hCys]IK([Ahx-Palmitoyl])[β3hF]-NH2; disulfide 1-8), 0.1 to 0.5 µM.
In the case of `CCCCCCCCCCCCCCCC(=O)NCCCCCC(=O)NCCCC[C@H](NC(=O)[C@@H](NC(=O)[C@@H]1CSSCC[C@H](NC(C)=O)C(=O)N[C@@H](CCC(=O)O)C(=O)N[C@@H]([C@@H](C)O)C(=O)N[C@@H](Cc2c[nH]cn2)C(=O)N[C@@H](C(c2ccccc2)c2ccccc2)C(=O)N2CCC[C@H]2C(=O)N1)[C@@H](C)CC)C(=O)N[C@H](CC(N)=O)Cc1ccccc1` [Compd 12] (Ac-[hCys]ETH[Dip]PCIK([Ahx-Palmitoyl])[β3hF]-NH2; disulfide 1-7), the DC50 lay within 0.1 to 0.5 µM.
Take `CC[C@H](C)[C@H](NC(=O)[C@@H]1CSSC[C@H](NC(=O)[C@H](Cc2c[nH]cn2)NC(=O)[C@@H](NC(=O)[C@H](CCC(=O)O)NC(=O)CC(C)C)[C@@H](C)O)C(=O)N2CCC[C@H]2C(=O)N1)C(=O)N[C@H](CCCCN)C(=O)N[C@H](CC(=O)N[C@@H](CCCCNC(=O)COCCOCCNC(=O)COCCOCCNC(=O)CCCCCNC(=O)CCCCCCCCCCCCCCCCC(=O)O)C(=O)N[C@H](CCCCN)C(N)=O)Cc1ccccc1` [Compd 24] (Isovaleryl-ETHCPCI[dK][β3hF]K([AEEA-AEEA-Ahx-C18 diacid])[dK]-NH2; disulfide 4-6): the DC50 lay in the range of 0.1 to 0.5 µM.
Same read-out and setting: the result for `CCCCCCCCCCCCCCCC(=O)NCCCCCC(=O)NCCCC[C@H](NC(=O)C[C@H](Cc1ccccc1)NC(=O)[C@@H](CCCCN)NC(=O)[C@@H](NC(=O)[C@@H]1CSSC[C@H](NC(=O)[C@H](Cc2c[nH]cn2)NC(=O)[C@@H](NC(=O)[C@H](CCC(=O)O)NC(=O)CC(C)C)[C@@H](C)O)C(=O)N2CCC[C@H]2C(=O)N1)[C@@H](C)CC)C(=O)N[C@H](CCCCN)C(N)=O` [Compd 3] (Isovaleryl-ETHCPCI[dK][β3hF]K([Ahx-Palmitoyl])[dK]-NH2; disulfide 4-6) reads 0.01 to 0.1 µM; that for `CC(C)CC(=O)N[C@@H](CCC(=O)O)C(=O)N[C@H](C(=O)N[C@@H](Cc1c[nH]cn1)C(=O)N[C@H](C(=O)N1CCC[C@H]1C(=O)N[C@H]1CSSC[C@@H](C(=O)N[C@H](CCCCN)C(=O)N[C@H](CC(=O)N[C@@H](CCCCNC(=O)COCCOCCNC(=O)COCCOCCNC(=O)CCCCCNC(=O)CCCCCCCCCCCCCCCCC(=O)O)C(=O)N[C@H](CCCCN)C(N)=O)Cc2ccccc2)NC1=O)C(c1ccccc1)c1ccccc1)[C@@H](C)O` [Compd 26] (Isovaleryl-ETH[Dip]PCC[dK][β3hF]K([AEEA-AEEA-Ahx-C18 diacid])[dK]-NH2; disulfide 6-7), 0.01 to 0.1 µM.
Still for that read-out and setting: the result for `CC[C@H](C)[C@H](NC(=O)[C@@H]1CSSC[C@H](NC(=O)[C@@H](NC(=O)[C@H](Cc2c[nH]cn2)NC(=O)[C@@H](NC(=O)[C@H](CCC(=O)O)NC(=O)CC(C)C)[C@@H](C)O)C(c2ccccc2)c2ccccc2)C(=O)N1)C(=O)N[C@H](CCCCN)C(=O)N[C@H](CC(=O)N[C@@H](CCCCNC(=O)COCCOCCNC(=O)COCCOCCNC(=O)CCCCCNC(=O)CCCCCCCCCCCCCCCCC(=O)O)C(=O)N[C@H](CCCCN)C(N)=O)Cc1ccccc1` [Compd 25] (Isovaleryl-ETH[Dip]CCI[dK][β3hF]K([AEEA-AEEA-Ahx-C18 diacid])[dK]-NH2; disulfide 5-6) reads 0.1 to 0.5 µM.

The same assay, now with this note: ferroportin-GFP internalization/degradation, HEK293 cells; Table 6E; read-out: FPN IC50.
As to `CC(C)CC(=O)N[C@@H](CCC(=O)O)C(=O)N[C@H](C(=O)N[C@@H](Cc1c[nH]cn1)C(=O)N[C@H](C(=O)N1CCC[C@H]1C(=O)N[C@H]1CSSC[C@@H](C(=O)N(C)[C@@H](CCCCNC(=O)COCCOCCNC(=O)COCCOCCNC(=O)[C@H](CN)NC(=O)CCCCCCCCCCCCCCCCC(=O)O)C(=O)N(C)[C@@H](Cc2ccccc2)C(=O)N[C@H](CCCCN)C(N)=O)N(C)C1=O)C(c1ccccc1)c1ccccc1)[C@@H](C)O` [compound 281] (Isovaleryl-ETH[Dip]PC[NMeC][NMeK]([AEEA-AEEA-Dap-C18 diacid])[NMeF][dK]-NH2; disulfide 6-7), the DC50 lay within 0.1 to 0.5 µM.
Still for that read-out and setting: the result for `CC(C)CC(=O)N[C@@H](CCC(=O)O)C(=O)N[C@H](C(=O)N[C@@H](Cc1c[nH]cn1)C(=O)N[C@H](C(=O)N1CCC[C@H]1C(=O)N[C@H]1CSSC[C@@H](C(=O)N(C)[C@@H](CCCCNC(=O)COCCOCCNC(=O)COCCOCCNC(=O)[C@H](CN)NC(=O)CCCCCCCCCCCCCCCCC(=O)O)C(=O)N[C@H](CC(=O)N[C@H](CCCCN)C(N)=O)Cc2ccccc2)N(C)C1=O)C(c1ccccc1)c1ccccc1)[C@@H](C)O` [compound 278] (Isovaleryl-ETH[Dip]PC[NMeC][NMeK]([AEEA-AEEA-Dap-C18 diacid])[β3hF][dK]-NH2; disulfide 6-7) reads 0.01 to 0.1 µM.
